For data set [1], the system named is PSMA-expressing LNCaP cells. The data set can be described thus: Internalization studies / cell binding in LNCaP cells. In kind it is cell-based, human. Conditions: 68Ga compounds, c = 0.2 nM, 37°C, 1 h, 125,000 cells/well, corrected for unspecific binding. How it is done:
Cell culture: PSMA^+ LNCaP cells (CLS: 300265) were grown in DMEM/Nutrition Mix F-12 with Glutamax-I (1:1) (Invitrogen, Life Technologies, Darmstadt, Germany) supplemented with 10% FCS. Cultures were maintained at 37°C in a 5% CO2/humidified air atmosphere. One day prior to the experiment, cells were harvested using Trypsin/EDTA (0.05% and 0.02%) in PBS, centrifuged and resuspended with culture medium. For cell counting, a Countesse automated cell counter (Invitrogen, Carlsbad, USA) was used. All in vitro binding and internalization studies were performed using live cells seeded 1 day prior to the experiment. For IC50 determination, 150,000 cells/mL were transferred to 24-well plates (1 mL/well), and for internalization studies, 125,000 cells/mL were transferred into PLL-coated 24-well plates.
Internalization studies: The culture medium was removed, and the cells were washed once with 500 μL DMEM-F12 (5% BSA) before being left to equilibrate in 200 μL DMEM-F12 (5% BSA) at 37°C for a minimum of 15 min. Then, 25 μL (per well) of either DMEM-F12 (5% BSA) or of a 100-μM PMPA solution (blocking) was added, followed by the addition of 25 μL of ^68Ga/^177Lu-labelled PSMA ligand. The final radioligand concentration was 0.2/0.5 nM in all internalization assays. To determine internalization kinetics, cells were then incubated at 37°C for 5, 15, 30 and 60 min, respectively. Experiments were carried out in triplicate for each time point (control and blocking). Incubation was terminated by placing the plate on ice for approximately 1 min and by subsequent removal of the incubation medium. Cells were thoroughly rinsed with 250 μL of PBS. The wash medium was combined with the supernatant of the previous step. This fraction represents the amount of free radioligand. To remove receptor surface bound radioactivity, the cells were then incubated for 10 min with 250 μL of ice cold PMPA solution (10 μM in PBS). After removal of the supernatant, the cells were thoroughly rinsed with another 250 μL of ice cold PBS. Both fractions were combined. The internalized activity was released by incubation with 250 μL of 1 N NaOH, transferred to vials and combined with 250 μL of 1 N NaOH used for rinsing the wells. Quantification of the amount of free, PMPA-releasable and internalized activity was performed in a γ-counter.
The cellular uptake and internalization kinetics of the different ^68Ga- and ^177Lu-labelled PSMA ligands was determined using PSMA-expressing LNCaP cells. In the case of the ^68Ga-labelled compounds, the final peptide concentration in the assays was 0.2 nM. […] All internalization studies were accompanied by reference studies using ([^125I]I-BA)KuE (c = 0.2 nM). This experimental setup allows data normalization and eliminates the influence of cell count and cell viability on absolute cellular tracer uptake. […] Furthermore, to be able to discriminate between total cellular activity (sum of membrane associated and internalized activity) and internalized activity, all incubations were followed by a washing step with 10 μM PMPA at 4°C to remove specifically cell-surface bound radioligand by displacement.

Data set [2] in a line: In vivo metabolite analysis by radio-HPLC. Particulars: CD-1 nu/nu mice, 0.5 h p.i. How it is done:
^177Lu-10 and ^177Lu-11 were incubated in 80 μL of human serum (37°C) and 80 μL 0.4 M DTPA solution (RT), respectively and after 1, 24 and 48 h, the stability was determined by TLC analysis. The ^68Ga-labelled tracers (40 to 45 MBq) were injected into the tail vein of CD-1 nu/nu mice. The animals were sacrificed after 30 min, and urine, blood and kidney samples were taken. The kidney was frozen in liquid nitrogen, homogenized with a ball mill and extracted with 0.2 to 1 mL PBS containing 200 nmol 2-(phosphonomethyl)pentane-1,5-dioic acid (PMPA). The suspension was first centrifuged (15,000 g), and after ultrafiltration, the extracts were analysed by RP-HPLC. The blood samples were centrifuged to separate the plasma from the blood cells. Plasma proteins were removed by precipitation with acetonitrile (10 min, 4°C) and subsequent centrifugation and ultrafiltration. The blood extract was also analysed by RP-HPLC.
To investigate the influence of the amino acid composition of the spacer (KFF vs kff) on the metabolic stability in vivo, tissue homogenates and body fluids of mice injected with ^68Ga-11 and ^68Ga-12 were analysed by radio-HPLC. Extraction efficiencies from the blood and from the kidney were 56% and 43% for ^68Ga-11 and 61% and 62% for ^68Ga-12, respectively.

Data set [3] is described as follows: Determination of lipophilicity (shake flask, n-octanol/PBS). Type of data set: physicochemical. How it is done:
To a solution of 0.5 to 1 MBq of radiolabelled peptide in 500 μl of phosphate-buffered saline (PBS, pH 7.4), 500 μl of n-octanol was added (n = 6). Vials were vortexed vigorously for 3 min. To achieve quantitative phase separation, the vials were centrifuged at 6,000 g for 5 min in a Biofuge 15 (Heraeus Sepatech, Osterode, Germany). The activity concentrations in 100 μl-samples of both the aqueous and the organic phase were measured in a γ-counter. Both the partition coefficient P(o/w), which is defined as the molar concentration ratio of a single species A between n-octanol and water at equilibrium, and logP(o/w), which is an important parameter used to characterize lipophilicity of a compound, were calculated.
The partition coefficient logP between n-octanol and PBS was determined for the compounds listed in Table 3 using the shake flask method. All compounds are highly hydrophilic, with the DOTAGA compounds being up to one order of magnitude more hydrophilic than the corresponding DOTA analogues. Amongst all compounds tested, [^68Ga]HBED-CC-Ahx-KuE was the most hydrophilic compound.

The subject of data set [4] is LNCaP tumour xenograft. Description: Biodistribution in LNCaP-tumour-bearing mice. Type of data set: in vivo. Particulars: LNCaP-tumour bearing CD-1 nu/nu mice, 1 h p.i. How it is done: All animal experiments were conducted in accordance with general animal welfare regulations in Germany (Deutsches Tierschutzgesetz, approval #55.2-1-54-2532-71-13). The prostate cancer cell line LNCaP was suspended 1/1 in serum-free medium and Matrigel (BD Biosciences, Germany) and approximately 10^7 cells in 200 μL were inoculated subcutaneously on the right shoulder of 6 to 8 weeks old CD-1 nu/nu mice (Charles River Laboratories). Tumours were grown for 2 to 4 weeks (males) and 4 to 6 weeks (females) to reach 4 to 8 mm in diameter.
Biodistribution: The ^68Ga-labelled PSMA ligands (approximately 7 to 15 MBq, 0.1 to 0.2 nmol) were injected into the tail vein of isoflurane anesthetized animals. The organ distribution was examined 1 h p.i. and quantified in a γ-counter.
A comparison of the biodistribution of compounds ^68Ga-11, ^68Ga-12 and the reference [^68Ga]HBED-CC-Ahx-KuE in LNCaP-tumour-bearing CD-1 nu/nu mice (1 h p.i.) is shown in Figure 7.

The record followed here is paper PMC4452638, “Synthesis and preclinical evaluation of DOTAGA-conjugated PSMA ligands for functional imaging and endoradiotherapy of prostate cancer” (EJNMMI Research, 2014).

Consider [^68Ga]DOTAGA-FFK(Sub-KuE) [^68Ga-11], for which the “Internalization (1 h) in % of ([125I]I-BA)KuE” value in data set [1] was 28.4 ± 0.7%. Further, the “Intact tracer in blood” value in data set [2] stood at 21%. The “log P (o/w)” value in data set [3] (n-octanol/PBS pH 7.4, mean ± SD (n = 6)) is recorded as −3.6 ± 0.1.
For the substance [^68Ga]DOTAGA-ffk(Sub-KuE) [^68Ga-12], in data set [4], the Kidney accumulation stood at 96 ± 45 % ID/g, the “Tracer uptake into liver” value is listed as 0.2 ± 0.04 % ID/g, the “Tracer uptake into lung” value amounted to 1.1 ± 0.3 % ID/g and the “Tracer uptake into pancreas” value stood at 0.4 ± 0.1 % ID/g. In data set [4], the “Tracer uptake into spleen” value was found to be 5.5 ± 0.2 % ID/g, the Tumour-to-blood ratio came out at 17.0 ± 0.5, the Tumour-to-skeletal muscle ratio is on record as 19.8 ± 0.7 and the “Uptake in gastrointestinal tract” value is recorded as less than 0.5 % ID/g. Further, the “Uptake into LNCaP tumour xenograft” value in data set [4] was found to be 5.2 ± 1.2 % ID/g. In addition, the “Internalization (1 h) in % of ([125I]I-BA)KuE” value in data set [1] is recorded as 42.5 ± 1.7%. Moreover, the “Intact tracer in blood” value in data set [2] was 100%. Also, the “log P (o/w)” value in data set [3] (n-octanol/PBS, listed for 11/12 but determined for the FFK analogue 11 only (footnote a)) is −3.6 ± 0.1.
